This note sets out measurements from US20060281724A1, “Methods for Treating Shock” (priority 2005, published 2006).

In experiment [1] the test system is rats hemorrhaged down to a mean arterial pressure of about 35-40 mmHg. The experiment is described as follows: Rat model of blood pressure hemorrhagic trauma (pressure reduction model). The class given is in vivo. To be noted: two days after induction of hemorrhage; AET 40 mg/kg subcutaneous in methyl cellulose suspension, one hour after initiation of hemorrhage, prior to fluid resuscitation; untreated/control group 75%. How it is done: In a second model of hemorrhagic trauma, 15 rats were hemorrhaged as in Example 1 down to a mean arterial pressure of about 35-40 mmHg and resuscitated one hour from onset of hemorrhage with crystalloid and PRBCs. Seven […] subcutaneous injection of AET in a methyl cellulose suspension at a concentration of 40 mg/kg body weight in 100 μl/kg body weight, one hour after initiation of hemorrhage, but prior to fluid resuscitation. Eight animals received subcutaneous methyl cellulose control injection at 100 μl/kg body weight. Two days after induction of hemorrhage, mortality in the untreated group (n=8) was 75%.

Experiment [2] relates to rats subjected to 40% loss of total blood volume. The experiment is described as follows: Rat model of volume hemorrhagic trauma (blood loss model). The experiment is classed as in vivo. How it is done: Twenty-four rats were subjected to 40% loss of total blood volume, consisting of catheterization and laparotomy (soft tissue injury) to mimic trauma and hemorrhage. One hour after onset of hemorrhage, the animals were resuscitated with crystalloid fluid and packed red blood cells (PRBCs). Twelve animals received one subcutaneous injection of AET in a methyl cellulose suspension at a concentration of 40 mg/kg body weight in 100 μl/kg body weight, one hour after initiation of hemorrhage, but prior to fluid resuscitation. Twelve animals received subcutaneous methyl cellulose control injection at 100 μl/kg body weight.

The molecule `C[C@]12CCC(O)CC1=CC(O)[C@@H]1[C@@H]2CC[C@]2(C)C(O)CC[C@@H]12` (stereo partly drawn) [AET, trihydroxy-androst-5ene] registered a mortality rate in experiment [1] of 43%. The mortality entry in experiment [2] (three days after hemorrhagic conditions that reduced total blood volume by 40%, FIG. 1) is “zero”. In addition, the survival rate in experiment [2] (three days after induction of hemorrhage, AET 40 mg/kg subcutaneous in methyl cellulose suspension, one hour after initiation of hemorrhage, prior to fluid resuscitation, untreated group mortality 25%, P<0.04) is listed as 100%.
